Like-named read-outs stand apart in the source and are kept apart here. Starred links: 1 amine or outer side, 2 acyl side, 3 side chain; linkers in the order of their positions; H or OH if unused. Non-standard residues stand in square brackets, D forms with d. Residues, ends and D or L forms follow the SMILES beside them. *: point of attachment. Ala(piperidin-4-yl) = O=C([C@H](CC1CCN([*:3])CC1)N[*:1])[*:2]; Malonyl(2,2-Me2,histaminyl) = CC(C)(C(=O)NCCc1cnc[nH]1)C(=O)*; dBip = N[C@H](Cc1ccc(-c2ccccc2)cc1)C(=O)O; Oic = O=C(O)[C@@H]1C[C@@H]2CCCC[C@@H]2N1; Phe(4-Br) = N[C@@H](Cc1ccc(Br)cc1)C(=O)O; His(τ-Me) = Cn1cnc(C[C@H](N)C(=O)O)c1; X5 = CC(C)(C(=O)NCc1c[nH]cn1)C(=O)*; NMeH = CN[C@@H](Cc1c[nH]cn1)C(=O)O; X1 = CC(C)(C(=O)NCCc1ccccc1)C(=O)*; X3 = CC(C)(C(=O)NCCc1ccccn1)C(=O)*; hArg = N=C(N)NCCCC[C@H](N)C(=O)O; NMeL = CN[C@@H](CC(C)C)C(=O)O; Aib = CC(C)(N)C(=O)O; Sar = CNCC(=O)O
Experiments:
human Apelin receptor [1] = molecular target: T1, human Apelin receptor (Homo sapiens, UniProt P35414); experiment: cAMP accumulation assay (HTRF), functional agonism of human Apelin receptors; format: cell-based; settings: for Emax: CHO
T1 sequence (P35414 1-380): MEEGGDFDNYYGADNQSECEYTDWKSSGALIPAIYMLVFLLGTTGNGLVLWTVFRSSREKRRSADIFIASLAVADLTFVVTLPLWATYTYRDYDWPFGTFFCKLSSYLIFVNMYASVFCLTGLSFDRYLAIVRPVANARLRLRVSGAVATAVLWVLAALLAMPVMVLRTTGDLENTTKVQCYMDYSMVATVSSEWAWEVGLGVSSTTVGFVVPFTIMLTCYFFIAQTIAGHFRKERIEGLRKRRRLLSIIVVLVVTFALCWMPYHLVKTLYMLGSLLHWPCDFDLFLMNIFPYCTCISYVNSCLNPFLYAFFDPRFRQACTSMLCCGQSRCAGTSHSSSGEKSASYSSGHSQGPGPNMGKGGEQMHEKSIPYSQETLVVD
Description: cAMP functional assay. cAMP production was quantified using the Homogeneous Time-Resolved Fluorescence (HTRF) cAMP dynamic-2 assay (Cisbio, France).

human Apelin receptor [2] = molecular target: T2, human Apelin receptor (Homo sapiens, UniProt P35414); experiment: β-arrestin accumulation assay, functional agonism of human Apelin receptors; format: cell-based
T2 construct: host or cells: CHO-K1 cells
Method in brief: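 After 16 h at 37° C., cells were exposed to increasing agonist concentrations in serum-free medium for 90 min at 37° C. Detection reagent added for 60 min in the dark; receptor activation read by fluorescence and EC50 derived from concentration-response curves.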
T2 sequence (P32121 whole entry partner, one chain of several): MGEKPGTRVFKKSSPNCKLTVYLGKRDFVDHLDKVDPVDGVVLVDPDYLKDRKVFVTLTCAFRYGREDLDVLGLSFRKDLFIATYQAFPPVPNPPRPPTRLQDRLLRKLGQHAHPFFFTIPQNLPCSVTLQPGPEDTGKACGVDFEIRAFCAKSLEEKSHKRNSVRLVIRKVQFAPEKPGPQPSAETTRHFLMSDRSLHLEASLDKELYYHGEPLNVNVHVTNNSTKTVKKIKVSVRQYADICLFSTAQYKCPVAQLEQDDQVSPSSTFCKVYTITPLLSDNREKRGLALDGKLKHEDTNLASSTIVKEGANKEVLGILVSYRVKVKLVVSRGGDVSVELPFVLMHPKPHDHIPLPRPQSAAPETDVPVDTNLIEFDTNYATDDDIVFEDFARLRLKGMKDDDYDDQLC

[3] = Human Apelin agonist cAMP assay, CHO cells stably expressing the human Apelin receptor, 3 uM forskolin
[4] = pEC50, Human Apelin agonist cAMP assay, CHO cells stably expressing the human Apelin receptor, 3 uM forskolin

Row | Compound | Emax (human Apelin receptor [1]; [3]) | EC50 (human Apelin receptor [1]; [4]) | EC50 (human Apelin receptor [2]) | Emax (human Apelin receptor [1]; read-out: Emax) | EC50 (human Apelin receptor [1]; read-out: pEC50 (converted))
1 | CC(C)C[C@H](NC(=O)[C@H](CCCNC(=N)N)NC(=O)[C@@H]1CCCN1C(=O)[C@@H](CCCNC(=N)N)NC(=O)[C@H](CCC(N)=O)NC(=O)C(C)(C)C(=O)NCCc1cnc[nH]1)C(=O)NC(C)(C)C(=O)N(C)[C@@H](Cc1c[nH]cn1)C(=O)N[C@@H](CC1CCNCC1)C(=O)NCC(=O)N1[C@H](C(=O)N[C@@H](Cc2ccc(Br)cc2)C(=O)N2CCC[C@H]2C(=O)N[C@H](Cc2ccc(-c3ccccc3)cc2)C(=O)O)C[C@@H]2CCCC[C@@H]21 [Example 44] ({Malonyl(2,2-Me2,histaminyl)}-Q[dR]PRL[Aib][NMeH][Ala(piperidin-4-yl)]G[Oic][Phe(4-Br)]P[dBip]-OH) | 34.7% | 50.1 nM | > 10000 nM | – | –
2 | CC(C)C[C@H](NC(=O)[C@@H](CCCNC(=N)N)NC(=O)[C@@H]1CCCN1C(=O)[C@H](CCCCNC(=N)N)NC(=O)[C@H](CCC(N)=O)NC(=O)C(C)(C)C(=O)NCCc1ccccc1)C(=O)NC(C)(C)C(=O)N[C@@H](Cc1c[nH]cn1)C(=O)N[C@@H](CC1CCNCC1)C(=O)NCC(=O)N1[C@H](C(=O)N[C@@H](Cc2ccc(Br)cc2)C(=O)N2CCC[C@H]2C(=O)N[C@H](Cc2ccc(-c3ccccc3)cc2)C(=O)O)C[C@@H]2CCCC[C@@H]21 [Example 45] (X1-Q[hArg]P[dR]L[Aib]H[Ala(piperidin-4-yl)]G[Oic][Phe(4-Br)]P[dBip]-OH) | 59% | 39.8 nM | > 10000 nM | – | –
3 | CC(C)C[C@H](NC(=O)[C@@H](CCCNC(=N)N)NC(=O)[C@@H]1CCCN1C(=O)[C@H](CCCCNC(=N)N)NC(=O)[C@H](CCC(N)=O)NC(=O)C(C)(C)C(=O)NCCc1ccccn1)C(=O)NC(C)(C)C(=O)N[C@@H](Cc1c[nH]cn1)C(=O)N[C@@H](CC1CCNCC1)C(=O)NCC(=O)N1[C@H](C(=O)N[C@@H](Cc2ccc(Br)cc2)C(=O)N2CCC[C@H]2C(=O)N[C@H](Cc2ccc(-c3ccccc3)cc2)C(=O)O)C[C@@H]2CCCC[C@@H]21 [Example 46] (X3-Q[hArg]P[dR]L[Aib]H[Ala(piperidin-4-yl)]G[Oic][Phe(4-Br)]P[dBip]-OH) | 55% | 39.8 nM | > 10000 nM | – | –
4 | CC(C)C[C@H](NC(=O)[C@@H](CCCNC(=N)N)NC(=O)[C@@H]1CCCN1C(=O)[C@H](CCCCNC(=N)N)NC(=O)[C@H](CCC(N)=O)NC(=O)C(C)(C)C(=O)NCCc1cnc[nH]1)C(=O)N[C@@H](CO)C(=O)NC(C)(C)C(=O)N[C@@H](CC1CCNCC1)C(=O)NCC(=O)N1[C@H](C(=O)N[C@@H](Cc2ccc(Br)cc2)C(=O)N2CCC[C@H]2C(=O)N[C@H](Cc2ccc(-c3ccccc3)cc2)C(=O)O)C[C@@H]2CCCC[C@@H]21 [Example 47] ({Malonyl(2,2-Me2,histaminyl)}-Q[hArg]P[dR]LS[Aib][Ala(piperidin-4-yl)]G[Oic][Phe(4-Br)]P[dBip]-OH) | 94.2% | 12.6 nM | > 1000 nM | – | –
5 | CC(C)C[C@@H](NC(=O)[C@@H](CCCNC(=N)N)NC(=O)[C@@H]1CCCN1C(=O)[C@H](CCCCNC(=N)N)NC(=O)[C@@H](CCC(N)=O)NC(=O)C(C)(C)C(=O)NCCc1cnc[nH]1)C(=O)NC(C)(C)C(=O)N[C@@H](Cc1c[nH]cn1)C(=O)N[C@@H](CC1CCNCC1)C(=O)N[C@H](C)C(=O)N1[C@H](C(=O)N[C@@H](Cc2ccc(Br)cc2)C(=O)N2CCC[C@H]2C(=O)N[C@H](Cc2ccc(-c3ccccc3)cc2)C(=O)O)C[C@@H]2CCCC[C@@H]21 [Example 48] ({Malonyl(2,2-Me2,histaminyl)}-[dQ][hArg]P[dR][dL][Aib]H[Ala(piperidin-4-yl)][dA][Oic][Phe(4-Br)]P[dBip]-OH) | 33.5% | 100 nM | > 10000 nM | – | –
6 | CC(C)C[C@H](NC(=O)[C@H](CCCNC(=N)N)NC(=O)[C@@H]1CCCN1C(=O)[C@@H](CCCNC(=N)N)NC(=O)[C@H](CCC(N)=O)NC(=O)C(C)(C)C(=O)NCCc1cnc[nH]1)C(=O)NC(C)(C)C(=O)N[C@@H](Cc1cn(C)cn1)C(=O)N[C@@H](CC1CCNCC1)C(=O)NCC(=O)N1[C@H](C(=O)N[C@@H](Cc2ccc(Br)cc2)C(=O)N2CCC[C@H]2C(=O)N[C@H](Cc2ccc(-c3ccccc3)cc2)C(=O)O)C[C@@H]2CCCC[C@@H]21 [Example 49] ({Malonyl(2,2-Me2,histaminyl)}-Q[dR]PRL[Aib][His(τ-Me)][Ala(piperidin-4-yl)]G[Oic][Phe(4-Br)]P[dBip]-OH) | 87.2% | 7.94 nM | > 10000 nM | – | –
7 | CC(C)C[C@H](NC(=O)[C@@H](CCCNC(=N)N)NC(=O)[C@@H]1CCCN1C(=O)[C@H](CCCCNC(=N)N)NC(=O)[C@@H](CCC(N)=O)NC(=O)C(C)(C)C(=O)NCCc1cnc[nH]1)C(=O)NC(C)(C)C(=O)N[C@@H](Cc1c[nH]cn1)C(=O)N[C@@H](CC1CCNCC1)C(=O)NCC(=O)N1[C@H](C(=O)N[C@@H](Cc2ccc(Br)cc2)C(=O)N2CCC[C@H]2C(=O)N[C@H](Cc2ccc(-c3ccccc3)cc2)C(=O)O)C[C@@H]2CCCC[C@@H]21 [Example 50] ({Malonyl(2,2-Me2,histaminyl)}-[dQ][hArg]P[dR]L[Aib]H[Ala(piperidin-4-yl)]G[Oic][Phe(4-Br)]P[dBip]-OH) | 56.5% | 39.8 nM | > 10000 nM | – | –
8 | CC(C)C[C@@H](C(=O)NC(C)(C)C(=O)N[C@@H](Cc1c[nH]cn1)C(=O)N[C@@H](CC1CCNCC1)C(=O)NCC(=O)N1[C@H](C(=O)N[C@@H](Cc2ccc(Br)cc2)C(=O)N2CCC[C@H]2C(=O)N[C@H](Cc2ccc(-c3ccccc3)cc2)C(=O)O)C[C@@H]2CCCC[C@@H]21)N(C)C(=O)[C@@H](CCCNC(=N)N)NC(=O)[C@@H]1CCCN1C(=O)[C@H](CCCCNC(=N)N)NC(=O)[C@H](CCC(N)=O)NC(=O)C(C)(C)C(=O)NCCc1cnc[nH]1 [Example 51] ({Malonyl(2,2-Me2,histaminyl)}-Q[hArg]P[dR][NMeL][Aib]H[Ala(piperidin-4-yl)]G[Oic][Phe(4-Br)]P[dBip]-OH) | 27.6% | 79.4 nM | > 10000 nM | – | –
9 | CC(C)C[C@H](NC(=O)[C@@H](CCCNC(=N)N)NC(=O)[C@@H]1CCCN1C(=O)[C@H](CCCCNC(=N)N)NC(=O)[C@H](CCC(N)=O)NC(=O)C(C)(C)C(=O)NCCc1cnc[nH]1)C(=O)NC(C)(C)C(=O)N[C@@H](Cc1c[nH]cn1)C(=O)N[C@@H](CC1CCNCC1)C(=O)N(C)CC(=O)N1[C@H](C(=O)N[C@@H](Cc2ccc(Br)cc2)C(=O)N2CCC[C@H]2C(=O)N[C@H](Cc2ccc(-c3ccccc3)cc2)C(=O)O)C[C@@H]2CCCC[C@@H]21 [Example 52] ({Malonyl(2,2-Me2,histaminyl)}-Q[hArg]P[dR]L[Aib]H[Ala(piperidin-4-yl)][Sar][Oic][Phe(4-Br)]P[dBip]-OH) | 20.4% | 63.1 nM | > 10000 nM | – | –
10 | CC(C)C[C@H](NC(=O)[C@@H](CCCNC(=N)N)NC(=O)[C@@H]1CCCN1C(=O)[C@H](CCCCNC(=N)N)NC(=O)[C@H](CCC(N)=O)NC(=O)C(C)(C)C(=O)NCc1c[nH]cn1)C(=O)NC(C)(C)C(=O)N[C@@H](Cc1c[nH]cn1)C(=O)N[C@@H](CC1CCNCC1)C(=O)NCC(=O)N1[C@H](C(=O)N[C@@H](Cc2ccc(Br)cc2)C(=O)N2CCC[C@H]2C(=O)N[C@H](Cc2ccc(-c3ccccc3)cc2)C(=O)O)C[C@@H]2CCCC[C@@H]21 [Example 53] (X5-Q[hArg]P[dR]L[Aib]H[Ala(piperidin-4-yl)]G[Oic][Phe(4-Br)]P[dBip]-OH) | – | – | > 10000 nM | 79.2% | 31.6 nM
